Results: the supplement of paper PMC10307832

Experiments:
Test in all cases: relative viability (nuclei count vs DMSO), 5 days (fraction); higher = more cells survive
[1] = compound: Cc1nc(NC(=O)N2CCC[C@H]2C(N)=O)sc1-c1ccnc(C(C)(C)C(F)(F)F)c1 [Alpelisib] + O=C(CCCCCCC(=O)Nc1ccccc1)NO [Vorinostat] (partner 1 µM)
Outline: (§1)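 Relative viability was taken as the ratio of nuclei in treated wells to nuclei in vehicle wells. Lung cancer cell lines in 1536-well plates received compounds by pin tool one day after seeding, either one drug alone or a fixed anchor-drug dose plus five library-drug doses (not always all listed) in √10 steps. Nuclei were counted on 4× images after 5 days of treatment, and values are medians of duplicate plates.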

[2] = compound: Cc1nc(NC(=O)N2CCC[C@H]2C(N)=O)sc1-c1ccnc(C(C)(C)C(F)(F)F)c1 [Alpelisib] + CCNC(=O)c1noc(-c2cc(C(C)C)c(O)cc2O)c1-c1ccc(CN2CCOCC2)cc1 [Luminespib] (partner 0.01 µM)
Outline: as §1

[3] = compound: COc1cccc2cc(-c3nc([C@H]4CC[C@H](C(=O)O)CC4)n4ncnc(N)c34)[nH]c12 [OSI-027] + NC(=O)Nc1cc(-c2cccc(F)c2)sc1C(=O)N[C@H]1CCCNC1 [AZD7762] (partner 0.2 µM)
Outline: as §1

[4] = compound: CCCS(=O)(=O)Nc1ccc(F)c(C(=O)c2c[nH]c3ncc(-c4ccc(Cl)cc4)cc23)c1F [Vemurafenib] + C[C@]1(O)C[C@@H](c2nc(-c3ccc4ccc(-c5ccccc5)nc4c3)c3c(N)nccn32)C1 [Linsitinib] (partner 1 µM)
Outline: as §1

## LCLC-103H
[1]; first compound 0.04 µM
  relative viability: 0.74
[1]; first compound 0.1265 µM
  relative viability: 0.744
[1]; first compound 0.4 µM
  relative viability: 0.801
[1]; first compound 1.265 µM
  relative viability: 0.669
[1]; first compound 4 µM
  relative viability: 0.624
[2]; first compound 0.04 µM
  relative viability: 0.97
[2]; first compound 0.1265 µM
  relative viability: 0.993
[2]; first compound 0.4 µM
  relative viability: 1.04
[2]; first compound 1.265 µM
  relative viability: 0.72
[2]; first compound 4 µM
  relative viability: 0.735
[3]; first compound 0.01 µM
  relative viability: 0.8
[3]; first compound 0.03162 µM
  relative viability: 0.717
[3]; first compound 0.1 µM
  relative viability: 0.748
[3]; first compound 0.3162 µM
  relative viability: 0.64
[3]; first compound 1 µM
  relative viability: 0.542
[4]; first compound 0.03162 µM
  relative viability: 1.09
[4]; first compound 0.1 µM
  relative viability: 1.04
[4]; first compound 0.3162 µM
  relative viability: 1.06
[4]; first compound 1 µM
  relative viability: 1.18

## LK-2
[1]; first compound 0.04 µM
  relative viability: 0.261
[1]; first compound 0.1265 µM
  relative viability: 0.264
[1]; first compound 0.4 µM
  relative viability: 0.261
[1]; first compound 1.265 µM
  relative viability: 0.234
[1]; first compound 4 µM
  relative viability: 0.306
[2]; first compound 0.04 µM
  relative viability: 0.139
[2]; first compound 0.1265 µM
  relative viability: 0.159
[2]; first compound 0.4 µM
  relative viability: 0.196
[2]; first compound 1.265 µM
  relative viability: 0.191
[2]; first compound 4 µM
  relative viability: 0.176
[3]; first compound 0.01 µM
  relative viability: 0.538
[3]; first compound 0.1 µM
  relative viability: 0.277
[3]; first compound 0.3162 µM
  relative viability: 0.16
[3]; first compound 1 µM
  relative viability: 0.112
[4]; first compound 0.03162 µM
  relative viability: 0.409
[4]; first compound 0.1 µM
  relative viability: 0.525
[4]; first compound 0.3162 µM
  relative viability: 0.811
[4]; first compound 1 µM
  relative viability: 0.417

## LOU-NH91
[1]; first compound 0.04 µM
  relative viability: 0.936
[1]; first compound 0.1265 µM
  relative viability: 0.785
[1]; first compound 0.4 µM
  relative viability: 0.823
[1]; first compound 1.265 µM
  relative viability: 0.715
[1]; first compound 4 µM
  relative viability: 0.556
[2]; first compound 0.04 µM
  relative viability: 0.239
[2]; first compound 0.1265 µM
  relative viability: 0.266
[2]; first compound 0.4 µM
  relative viability: 0.311
[2]; first compound 1.265 µM
  relative viability: 0.247
[2]; first compound 4 µM
  relative viability: 0.27
[3]; first compound 0.01 µM
  relative viability: 0.762
[3]; first compound 0.03162 µM
  relative viability: 0.702
[3]; first compound 0.1 µM
  relative viability: 0.667
[3]; first compound 0.3162 µM
  relative viability: 0.597
[3]; first compound 1 µM
  relative viability: 0.482
[4]; first compound 0.03162 µM
  relative viability: 0.864
[4]; first compound 0.1 µM
  relative viability: 0.535
[4]; first compound 1 µM
  relative viability: 1.01

## LU99A
[1]; first compound 0.04 µM
  relative viability: 0.462
[1]; first compound 0.1265 µM
  relative viability: 0.488
[1]; first compound 0.4 µM
  relative viability: 0.508
[1]; first compound 1.265 µM
  relative viability: 0.415
[1]; first compound 4 µM
  relative viability: 0.334
[2]; first compound 0.04 µM
  relative viability: 0.298
[2]; first compound 0.1265 µM
  relative viability: 0.216
[2]; first compound 0.4 µM
  relative viability: 0.249
[2]; first compound 1.265 µM
  relative viability: 0.226
[2]; first compound 4 µM
  relative viability: 0.247
[3]; first compound 0.01 µM
  relative viability: 0.462
[3]; first compound 0.03162 µM
  relative viability: 0.321
[3]; first compound 0.1 µM
  relative viability: 0.28
[3]; first compound 0.3162 µM
  relative viability: 0.133
[3]; first compound 1 µM
  relative viability: 0.171
[4]; first compound 0.03162 µM
  relative viability: 0.484
[4]; first compound 0.1 µM
  relative viability: 0.445
[4]; first compound 0.3162 µM
  relative viability: 0.586
[4]; first compound 1 µM
  relative viability: 0.479

## LXF-289
[1]; first compound 0.04 µM
  relative viability: 0.741
[1]; first compound 0.1265 µM
  relative viability: 0.685
[1]; first compound 0.4 µM
  relative viability: 0.942
[1]; first compound 1.265 µM
  relative viability: 0.723
[1]; first compound 4 µM
  relative viability: 0.766
[2]; first compound 0.04 µM
  relative viability: 0.69
[2]; first compound 0.1265 µM
  relative viability: 0.806
[2]; first compound 0.4 µM
  relative viability: 0.619
[2]; first compound 1.265 µM
  relative viability: 0.534
[2]; first compound 4 µM
  relative viability: 0.632
[3]; first compound 0.01 µM
  relative viability: 1.06
[3]; first compound 0.03162 µM
  relative viability: 1.02
[3]; first compound 0.1 µM
  relative viability: 1.23
[3]; first compound 0.3162 µM
  relative viability: 1.15
[3]; first compound 1 µM
  relative viability: 0.959
[4]; first compound 0.03162 µM
  relative viability: 0.877
[4]; first compound 0.1 µM
  relative viability: 0.919
[4]; first compound 0.3162 µM
  relative viability: 0.992
[4]; first compound 1 µM
  relative viability: 1.04

## NCI-H23
[1]; first compound 0.04 µM
  relative viability: 0.634
[1]; first compound 0.1265 µM
  relative viability: 0.441
[1]; first compound 0.4 µM
  relative viability: 0.411
[1]; first compound 1.265 µM
  relative viability: 0.414
[1]; first compound 4 µM
  relative viability: 0.332
[2]; first compound 0.04 µM
  relative viability: 0.225
[2]; first compound 0.4 µM
  relative viability: 0.244
[2]; first compound 1.265 µM
  relative viability: 0.201
[2]; first compound 4 µM
  relative viability: 0.215
[3]; first compound 0.01 µM
  relative viability: 0.231
[3]; first compound 0.03162 µM
  relative viability: 0.259
[3]; first compound 0.1 µM
  relative viability: 0.26
[3]; first compound 0.3162 µM
  relative viability: 0.253
[3]; first compound 1 µM
  relative viability: 0.215
[4]; first compound 0.03162 µM
  relative viability: 0.621
[4]; first compound 0.1 µM
  relative viability: 0.605
[4]; first compound 0.3162 µM
  relative viability: 0.715
[4]; first compound 1 µM
  relative viability: 0.59

## NCI-H322M
[1]; first compound 0.04 µM
  relative viability: 0.897
[1]; first compound 0.1265 µM
  relative viability: 0.962
[1]; first compound 0.4 µM
  relative viability: 0.954
[1]; first compound 1.265 µM
  relative viability: 0.733
[1]; first compound 4 µM
  relative viability: 0.634
[2]; first compound 0.04 µM
  relative viability: 0.795
[2]; first compound 0.1265 µM
  relative viability: 0.737
[2]; first compound 0.4 µM
  relative viability: 0.789
[2]; first compound 1.265 µM
  relative viability: 0.45
[2]; first compound 4 µM
  relative viability: 0.39
[3]; first compound 0.01 µM
  relative viability: 0.621
[3]; first compound 0.03162 µM
  relative viability: 0.61
[3]; first compound 0.1 µM
  relative viability: 0.481
[3]; first compound 0.3162 µM
  relative viability: 0.427
[3]; first compound 1 µM
  relative viability: 0.419
[4]; first compound 0.03162 µM
  relative viability: 0.851
[4]; first compound 0.3162 µM
  relative viability: 0.964
[4]; first compound 1 µM
  relative viability: 0.885

## NCI-H358
[1]; first compound 0.04 µM
  relative viability: 0.686
[1]; first compound 0.1265 µM
  relative viability: 0.563
[1]; first compound 0.4 µM
  relative viability: 0.768
[1]; first compound 1.265 µM
  relative viability: 0.428
[1]; first compound 4 µM
  relative viability: 0.321
[2]; first compound 0.04 µM
  relative viability: 0.29
[2]; first compound 0.1265 µM
  relative viability: 0.23
[2]; first compound 0.4 µM
  relative viability: 0.32
[2]; first compound 1.265 µM
  relative viability: 0.252
[2]; first compound 4 µM
  relative viability: 0.215
[3]; first compound 0.01 µM
  relative viability: 0.544
[3]; first compound 0.03162 µM
  relative viability: 0.472
[3]; first compound 0.1 µM
  relative viability: 0.543
[3]; first compound 0.3162 µM
  relative viability: 0.56
[3]; first compound 1 µM
  relative viability: 0.347
[4]; first compound 0.03162 µM
  relative viability: 0.686
[4]; first compound 0.3162 µM
  relative viability: 1
[4]; first compound 1 µM
  relative viability: 0.79

## NCI-H441
[1]; first compound 0.04 µM
  relative viability: 0.681
[1]; first compound 0.1265 µM
  relative viability: 0.716
[1]; first compound 0.4 µM
  relative viability: 0.961
[1]; first compound 1.265 µM
  relative viability: 0.603
[1]; first compound 4 µM
  relative viability: 0.401
[2]; first compound 0.04 µM
  relative viability: 0.395
[2]; first compound 0.1265 µM
  relative viability: 0.324
[2]; first compound 0.4 µM
  relative viability: 0.333
[2]; first compound 1.265 µM
  relative viability: 0.272
[2]; first compound 4 µM
  relative viability: 0.312
[3]; first compound 0.01 µM
  relative viability: 1.35
[3]; first compound 0.03162 µM
  relative viability: 1.07
[3]; first compound 0.1 µM
  relative viability: 1.24
[3]; first compound 0.3162 µM
  relative viability: 0.934
[3]; first compound 1 µM
  relative viability: 0.499
[4]; first compound 0.03162 µM
  relative viability: 0.555
[4]; first compound 0.1 µM
  relative viability: 0.527
[4]; first compound 0.3162 µM
  relative viability: 0.491
[4]; first compound 1 µM
  relative viability: 0.345
